Like-named read-outs stand apart in the source and are kept apart here.
Assays:
[1] = system: static SQL-SAL liver model; experiment: Static 4-cell SQL-SAL liver in 96-well microplates (vitamin D3); assay type: in vitro ADME, human; conditions: for Concentration in liver efflux media: vitamin D3 experiment, 96-well 4-cell liver module, 72 h, media pooled
Protocol: Media without dexamethasone was used to avoid downstream toxicity to the human neurons in the NVU. […]
The intestinal/liver-conditioned media efflux was collected and samples were tested by MS or transported on dry ice for testing in the kidney module, or the BBB/NVU module.
Dexamethasone, normally used to maintain hepatocyte differentiation, was removed from the liver media for functional coupling to avoid downstream toxicity to the human neurons in the NVU. […] Briefly, cryopreserved human hepatocytes were seeded into collagen type 1 coated 96-well plates at 26,000 hepatocytes/well and allowed to attach overnight in hepatocyte plating media (HPM). The HPM was decanted and 1.25x10^5 Ea.Hy.926 endothelial cells and 8 X10^4 differentiated U937 immune cells in MEM media supplemented with 10% FBS and L-Glutamine were added. After 2 h the media was decanted and 40 µL of a slurry of 1.5 mg/mL gelling collagen type 1 in Williams E media with 4 X 10^4 LX-2 stellate cells was added.

[2] = system: differentiated human jejunal enteroids
Source text: (§1) Mass spectrometry was used to measure the concentration of compound and metabolites in the media following exposure in each MPS organ module.
(§2) Human jejunal enteroid cultures were isolated from two separate donors as described[59] and maintained in culture as spherical enteroids in Matrigel (Becton Dickinson, Franklin Lakes, NJ) until dissociated and plated as monolayer cultures on collagen IV coated polyethylene terephthalate (PET) Transwell® membrane inserts (Corning, Inc., Corning, NY) (Fig. 1A)[55][59][60][61]. The apical chamber received 100 μl of a 5 × 10^6/mL of the suspended cells in proliferation media. The basolateral chamber received 600 μl of proliferation media. […] Jejunal barrier monolayer with intact tight junctions were established by TEER testing and the restricted diffusion of 4 kD FITC-dextran polymers over the 24 h period (Supplemental Information Supplemental Table S8).
(§3) TMA was prepared at a concentration 3 mM by dissolving the neat compound directly into intestinal apical media. […] The dried residue was solubilized in apical media and mixed by sonication in a water bath for 30 s.
(§4) All treatments were conducted in duplicate modules in each laboratory. […] The apical and basolateral media were collected in glass vials and frozen at −80 °C for MS analysis and transported to UPitt for testing in the SQL-SAL module.

[3] = system: blood-brain barrier/neurovascular unit (BBB/NVU); experiment: BBB/NVU module penetration; conditions: for Penetration through blood-brain barrier (MPS): BBB/NVU module, TMAO 12 h, others 24 h
[4] = system: Kidney MPS Organ Module (PTK); experiment: Vitamin D binding protein as carrier in PTK module; conditions: 1 μM 25-(OH) VD3
[5] = system: proximal tubule kidney (PTK) module; experiment: Proximal tubule kidney (PTK) module, vitamin D3 metabolites
Protocol: Briefly, a single 100 μm diameter lumen was pre-cast in gelling collagen inside the microfluidic device and then seeded with passage 5 kidney PTEC to 100% confluence according to established methods[52]. The kidney proximal tubule modules were then perfused (30 μL/h) for 8 days with 100% kidney proximal tubule media prior to perfusion with mixed media solutions.
All media samples were stored in amber glass vials at −80 °C until LC-MS/MS analysis.

[6] = system: differentiated human jejunal enteroids; experiment: Intestine module: jejunal enteroid Transwell transport and metabolism; conditions: for Concentration in micelle preparation: synthetic micelles containing 100 μM vitamin D3
Source text: as §1, §2, §3, §4

Liver MPS Organ Module = experiment: Effect of vitamin D binding protein on recovery and metabolism in liver module; assay type: in vitro ADME, human; conditions: for VD3 Recovered in Efflux Media / 25-(OH) VD3 formation: 7 μM VitD3
Protocol: Media without dexamethasone was used to avoid downstream toxicity to the human neurons in the NVU. […] Media samples were collected after 24 h and 48 h incubations.
Samples from the treatment conditions were collected after 24-h and 48-h incubations and stored in amber glass vials at -80°C for LC-MS/MS analysis.

[7] = system: blood-brain barrier/neurovascular unit (BBB/NVU); conditions: human, 24 h
[8] = cited from earlier work
[9] = system: vascularized proximal tubule kidney (VPTK) module; experiment: Vascularized proximal tubule kidney (VPTK) module secretion; conditions: for Excreted into proximal tubule lumen, MPS: Table 2, MPS model
Protocol: as §1
To form the vascularized kidney model, 2 lumens were pre-cast side-by-side in gelling collagen inside the Nortis microfluidic device. Human proximal tubule epithelial cells (PTEC) were seeded on the wall of one lumen channel at an approximate density of 20 × 10^6 cells/mL and were allowed to attach for 1 h. Culture media flow at 30 μl/h was then initiated and maintained for 5 days in order to establish a 100% confluent tubule expressing tight junctions. On day 6, the flow of culture media to the PTEC channel was stopped to allow the second channel seeding at 20 × 10^6 human umbilical vein endothelial cells/mL (HUVEC) and allowed to attach for 30–60 minutes. Parallel media flow of defined DMEM/F-12 (see Supplement) with 2% FBS for the PTEC channel and EGM-2 media for HUVEC channel were initiated at a rate of 30 μl/h. The VPTK devices were allowed to stabilize overnight before conducting test compound treatment.
The media for the PTEC channel remained unchanged. Media perfusion was initiated simultaneously for both channels at a flow rate of 60 μl/h. The effluents from both channels were collected for 6 h. Due to the insensitivity of the TMAO analyte by mass spectrometry, an additional TMAO experiment using EGM-2 media supplemented with 5 mM TMAO was conducted in the VPTK to quantitate the level of TMAO secretion.

[10] = 0-48 h, 50% liver-conditioned, N=2
[11] = 100 μM vitamin D3 micelles apical, 24 h
[12] = initial four-organ functional study, no DBP
[13] = TMA experiment, liver-conditioned media, Brain (12 h)
[14] = kidney perfused at 3.75 X 10^5 ng/ml TMAO spiked media, 0-6 h
[15] = kidney perfused with liver conditioned media, 0-6 h
[16] = 3 mM TMA added to apical compartment, 0-24 h
[17] = liver-conditioned media, 6 h perfusion
[18] = terfenadine experiment, liver-conditioned media, 0-6 h

## C=C1/C(=C\C=C2/CCC[C@]3(C)[C@@H]([C@H](C)CCCC(C)(C)O)CC[C@@H]23)C[C@@H](O)C[C@@H]1O [1α,25-(OH)2 Vitamin D3, 1α,25-(OH)2 vitamin D3]
[1]
  Concentration in liver efflux media: 0.0064 ng/mL
[2]
  Concentration in micelle preparation: < LOD^2 < LOD < LOD

## C=C1CCC(O)C/C1=C\C=C1\CCCC2(C)C1CCC2C(C)CCC(O)C(C)(C)O (stereo not shown) [24,25-(OH)2 Vitamin D3, 24,25-(OH)2 vitamin D3]
[1]
  Concentration in liver efflux media: 0.25 ng/mL
[3]; vitamin D3 experiment, 24 h
  Concentration in brain neuronal efflux: LOQ
  Concentration in brain vascular efflux: 0.079 ± 0.015 ng/mL
[4]; 48-72 h, media + 2% FBS
  Metabolite formation in kidney efflux: 6.80 ± 1.6 pmol/day/ 10^6 Proximal Tubule Cells
[5]; [10]
  Concentration in kidney efflux media: 0.082 ng/mL
[5]; 0-48 h, 80% liver-conditioned
  Concentration in kidney efflux media: 0.12 ng/mL
[5]; 0-120 h, 50% liver-conditioned
  Concentration in kidney efflux media: 0.11 ng/mL
[5]; 0-120 h, 80% liver-conditioned
  Concentration in kidney efflux media: 0.16 ng/mL
[6]; [11]
  Concentration in intestine apical media: < LOD^2 < LOD < LOD
  Concentration in intestine basolateral media: < LOD^2 < LOD < LOD
[6]
  Concentration in micelle preparation: < LOD^2 < LOD < LOD

## C=C1CC[C@H](O)[C@H](O)/C1=C/C=C1\CCC[C@]2(C)[C@@H]([C@H](C)CCCC(C)(C)O)CC[C@@H]12 [4β,25-(OH)2 Vitamin D3, 4β,25-(OH)2 vitamin D3]
[1]
  Concentration in liver efflux media: 0.047 ng/mL
[3]; vitamin D3 experiment, 24 h
  Concentration in brain neuronal efflux: LOD
  Concentration in brain vascular efflux: 0.0081 ± 0.0029 ng/mL
[5]; [10]
  Concentration in kidney efflux media: 0.0033 ng/mL
[5]; 0-48 h, 80% liver-conditioned
  Concentration in kidney efflux media: 0.0064 ng/mL
[5]; 0-120 h, 50% liver-conditioned
  Concentration in kidney efflux media: 0.0076 ng/mL
[5]; 0-120 h, 80% liver-conditioned
  Concentration in kidney efflux media: 0.014 ng/mL
[6]; [11]
  Concentration in intestine apical media: < LOD^2 < LOD < LOD
  Concentration in intestine basolateral media: < LOD^2 < LOD < LOD
[6]
  Concentration in micelle preparation: < LOD^2 < LOD < LOD

## C=C1CC[C@H](O)C/C1=C/C=C1\CCC[C@]2(C)[C@@H]([C@H](C)CCCC(C)C)CC[C@@H]12 [Vitamin D3, vitamin D3, reference compound]
[1]; Table 2, MPS model, vitamin D3
  Liver metabolism, MPS: VD3 → 25(OH)VD3 & 24,25(OH)2VD3
[1]; [12]
  Vitamin D3 perfused into the liver that was unrecoverable: 80%
[1]
  Concentration in liver efflux media: 1100 (pooled)^3 ng/ml
Liver MPS Organ Module; 0-24 h, Williams E Media + 1.25 mg/ml BSA (no DBP)
  VD3 Recovered in Efflux Media: 20%
Liver MPS Organ Module; 0-24 h, Williams E Media + 1.25 mg/ml BSA (no DBP), listed as VD3
  VD3 Recovered in Efflux Media: 20% recovery
Liver MPS Organ Module; 0-24 h, Williams E Media, 1.25 mg/ml BSA, 3 μM Vitamin D Binding Protein, listed as VD3
  VD3 Recovered in Efflux Media: 57% recovery
Liver MPS Organ Module; 24-48 h, Williams E Media, 1.25 mg/ml BSA, 3 μM Vitamin D Binding Protein
  VD3 Recovered in Efflux Media: ~100%
Liver MPS Organ Module; 24-48 h, Williams E Media, 1.25 mg/ml BSA, 3 μM Vitamin D Binding Protein, listed as VD3
  VD3 Recovered in Efflux Media: 100% recovery
[2]; human, 24 h, 100 µM
  Concentration in intestine apical media: 20000 ± 2200 ng/mL
  Concentration in intestine basolateral media: 8300 ± 410 ng/mL
[7]
  Concentration in brain neuronal efflux: 0.19 ± 0.23 ng/mL
  Concentration in brain vascular efflux: 45 ± 6.2 ng/mL
[8]; Table 2, clinical
  Penetration through blood-brain barrier, Clinical: VD3 & 25(OH)VD3 Penetration
[3]; liver-conditioned media
  Penetration through blood-brain barrier (MPS): 0.4%
[5]; [10]
  Concentration in kidney efflux media: 1.5 ng/mL
[5]; 0-48 h, 80% liver-conditioned
  Concentration in kidney efflux media: 4.3 ng/mL
[5]; 0-120 h, 50% liver-conditioned
  Concentration in kidney efflux media: 1.0 ng/mL
[5]; 0-120 h, 80% liver-conditioned
  Concentration in kidney efflux media: 1.4 ng/mL
[6]; 100 μM vitamin D3 in micelles apical, 24 h
  Share of initial vitamin D3 concentration transported to basolateral media: 23%
[6]
  Concentration in micelle preparation: 36000 ± 4200 ng/mL

## CN(C)C [TMA, trimethylamine]
[8]; Table 2, clinical
  Intestine fate, Clinical: Uptake & Transport
  Liver metabolism, Clinical: TMA → TMAO
  TMA Clearance (liver), Clinical: < 5%
[3]; [13]
  Concentration in brain neuronal efflux: < LOQ < LOQ
  Concentration in brain vascular efflux: < LOQ < LOQ
[9]; [14]
  Concentration in kidney plasma efflux: < LOQ < LOQ
  Concentration in kidney proximal tubule lumen: < LOQ < LOQ
[9]; [15]
  Concentration in kidney plasma efflux: < LOQ <LOQ
  Concentration in kidney proximal tubule lumen: < LOQ <LOQ
[6]; 316 μg/mL (3 mM) apical, 24 h
  Share of starting TMA concentration found in basolateral media: 6%
[6]; [16]
  Concentration in intestine basolateral media: 19100 ± 2179 ng/mL
[6]; TMA hydrochloride 316 μg/mL (3 mM) apical, 24 h
  Concentration in intestine basolateral media: 19100 ± 2200 ng/mL
[6]; Table 2, MPS model
  Intestine fate, MPS: Uptake & Transport

## C[N+](C)(C)[O-] [TMAO, trimethylamine-N-oxide]
[8]; Table 2, clinical
  Excreted into proximal tubule lumen, Clinical: > 95% TMAO Excreted
[3]; [13]
  Concentration in brain neuronal efflux: 1800 ± 100 ng/mL
  Concentration in brain vascular efflux: 4600 ± 200 ng/mL
[3]; TMA experiment, 12 h perfusion
  Concentration in BBB/NVU neuronal efflux: 1800 ± 100 ng/mL
  Concentration in BBB/NVU vascular efflux: 4600 ± 200 ng/mL
[9]
  Excreted into proximal tubule lumen, MPS: ~46% TMAO Excreted
[9]; independent experiment, media with 375 μg/mL TMAO
  TMAO secreted into the kidney lumen: 46%
[9]; [15]
  Concentration in kidney plasma efflux: 21720 ± 6967 ng/mL
  Concentration in kidney proximal tubule lumen: 450 ± 290 ng/mL
[9]; [17]
  Share of TMAO found in lumenal media: 5%
  Share of TMAO found in vascular media: 95%
[6]; [16]
  Concentration in intestine apical media: < LOQ^1 < LOQ
  Concentration in intestine basolateral media: < LOQ^1 < LOQ

## CC(C)(C(=O)O)c1ccc(C(O)CCCN2CCC(C(O)(c3ccccc3)c3ccccc3)CC2)cc1 (stereo not shown) [Fexofenadine, fexofenadine, reference compound]
[8]; Table 2, clinical
  Excreted into proximal tubule lumen, Clinical: 11% Fex Excreted
[9]
  Excreted into proximal tubule lumen, MPS: ~ 1% Fex Excreted
[9]; liver-conditioned media, 6 h
  Share of total fexofenadine found in lumen media: ~1%

## CC(C)(C)c1ccc(C(O)CCCN2CCC(C(O)(c3ccccc3)c3ccccc3)CC2)cc1 (stereo not shown) [Terfenadine, terfenadine, reference compound]
[8]; Table 2, clinical
  Bio T (liver), Clinical: < 1%
  Intestine fate, Clinical: Ter → Fex
[9]; [18]
  Concentration in kidney plasma (vascular) efflux: < LOQ^2 < LOQ
  Concentration in kidney proximal tubule lumen: < LOQ^2 < LOQ

## C=C1CC[C@H](O)C/C1=C/C=C1\CCC[C@]2(C)[C@@H]([C@H](C)CCCC(C)(C)O)CC[C@@H]12 [25-(OH) Vitamin D3, 25-(OH) vitamin D3]
[1]
  Concentration in liver efflux media: 3.0 ng/mL
Liver MPS Organ Module; 0-24 h, 3 μM DBP
  25-(OH) VD3 formation as % of in vivo rate: 4.9 % of in vivo rate
  25-(OH) VD3 formation: 12.63 pmol/day/10^6 Hepatocytes
Liver MPS Organ Module; 0-24 h, no DBP
  25-(OH) VD3 formation as % of in vivo rate: 2.7 % of in vivo rate
  25-(OH) VD3 formation: 7.00 pmol/day/10^6 Hepatocytes
Liver MPS Organ Module; DBP:vitamin D3 3:1 versus no DBP
  Improvement of formation and recovery of the metabolite with DBP: 2–3 fold
[8]; Table 2, clinical
  Kidney metabolism, Clinical: 25(OH)VD3 → 1α,25(OH)2VD3 & 24,25(OH)2VD3
  Penetration through blood-brain barrier, Clinical: VD3 & 25(OH)VD3 Penetration
[8]; in humans
  Plasma 25-(OH) vitamin D3 transported by DBP: 85–90%
[3]; liver-conditioned media
  Penetration through blood-brain barrier (MPS): approximately 6%
[3]; liver-conditioned media, listed as 25(OH) VD3
  Penetration through blood-brain barrier (MPS): 6%
[3]; vitamin D3 experiment, 24 h
  Concentration in brain neuronal efflux: 0.051 ± 0.022 ng/mL
  Concentration in brain vascular efflux: 0.82 ± 0.15 ng/mL
[4]; 48-72 h, Renal Tubular Epithelial Media + 3 μM Vitamin D Binding Protein
  25-(OH) VD3 recovery: 100%
[4]; 48-72 h, Renal Tubular Epithelial Media + 2% FBS
  25-(OH) VD3 recovery: 8%
[4]; media + 2% FBS
  Recovered from syringes and tubing leading up to MPS module: 16%
[5]; [10]
  Concentration in kidney efflux media: 0.12 ng/mL
[5]; 0-48 h, 80% liver-conditioned
  Concentration in kidney efflux media: 0.23 ng/mL
[5]; 0-120 h, 50% liver-conditioned
  Concentration in kidney efflux media: 0.29 ng/mL
[5]; 0-120 h, 80% liver-conditioned
  Concentration in kidney efflux media: 0.48 ng/mL
[5]; [12]
  25-(OH) vitamin D3 perfused into the kidney that was unrecoverable: 90%
[6]; [11]
  Concentration in intestine apical media: < LOQ^1 < LOQ < LOQ
  Concentration in intestine basolateral media: < LOQ^1 < LOQ < LOQ
[6]
  Concentration in micelle preparation: < LOQ^1 < LOQ < LOQ
